Measurements: PMC3584946, “Three-component synthesis of pyrano[2,3-d]-pyrimidine dione derivatives facilitated by sulfonic acid nanoporous silica (SBA-Pr-SO3H) and their docking and urease inhibitory activity” (DARU Journal of Pharmaceutical Sciences, 2013)
Read-outs that look alike come from different tables or passages of the source.

Molecular target: Jack bean urease (Canavalia ensiformis, UniProt P07374)
Assay: phenol red urease assay, […] nm
Assay type: biochemical
[1] = 100 mM urea, 10 mM phosphate pH 7.0, 37°C, 30 min, read-out: IC50

Jack bean urease, sequence (P07374 whole entry): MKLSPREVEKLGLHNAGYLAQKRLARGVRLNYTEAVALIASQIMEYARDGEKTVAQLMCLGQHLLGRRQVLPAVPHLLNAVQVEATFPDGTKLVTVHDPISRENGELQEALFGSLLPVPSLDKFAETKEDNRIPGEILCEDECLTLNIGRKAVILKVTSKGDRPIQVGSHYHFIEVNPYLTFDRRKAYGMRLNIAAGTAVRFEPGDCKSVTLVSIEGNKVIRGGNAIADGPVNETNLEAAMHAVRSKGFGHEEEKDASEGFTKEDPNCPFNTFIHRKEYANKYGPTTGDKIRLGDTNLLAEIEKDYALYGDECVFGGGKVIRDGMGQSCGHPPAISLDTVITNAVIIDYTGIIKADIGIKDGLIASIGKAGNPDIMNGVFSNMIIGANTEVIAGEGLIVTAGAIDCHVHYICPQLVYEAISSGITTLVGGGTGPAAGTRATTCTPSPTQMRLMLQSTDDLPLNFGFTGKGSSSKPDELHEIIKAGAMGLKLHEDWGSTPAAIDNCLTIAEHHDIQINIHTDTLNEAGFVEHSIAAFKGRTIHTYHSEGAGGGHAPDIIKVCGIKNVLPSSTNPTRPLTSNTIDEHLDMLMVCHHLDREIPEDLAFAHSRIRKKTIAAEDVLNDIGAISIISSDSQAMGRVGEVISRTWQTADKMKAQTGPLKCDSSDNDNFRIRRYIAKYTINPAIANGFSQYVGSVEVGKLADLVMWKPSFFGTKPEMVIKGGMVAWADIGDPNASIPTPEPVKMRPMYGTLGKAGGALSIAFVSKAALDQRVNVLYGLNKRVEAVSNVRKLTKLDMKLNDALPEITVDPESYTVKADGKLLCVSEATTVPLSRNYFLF

SMILES	IC50 [1]	IC50
Cc1cccc(C2C(C#N)=C(N)Oc3[nH]c(=O)[nH]c(=O)c32)c1 (stereo not drawn) [4f, 7-Amino-6-cyano-5-(3-methylphenyl)-5H-pyrano[2,3-d]pyrimidine-2,4(1H,3H)-diones]	41.1 µM	–
COc1cccc(C2C(C#N)=C(N)Oc3[nH]c(=O)[nH]c(=O)c32)c1 (stereo not drawn) [4h, 7-Amino-6-cyano-5-(3-methoxylphenyl)-5H-pyrano[2,3-d]pyrimidine-2,4(1H,3H)-diones]	–	106 µM
N#CC1=C(N)Oc2[nH]c(=O)[nH]c(=O)c2C1c1c(Cl)cccc1Cl (stereo not drawn) [4k, 7-Amino-6-cyano-5-(2,6-dichlorophenyl)-5H-pyrano[2,3-d]pyrimidinone]	41 µM	–
